Assays:
[1] = molecular target: T1, Recombinant STAT3 protein (STAT3(G127-I722)) (Homo sapiens, UniProt P40763); test: STAT3 Fluorescence Polarization (FP) Assay; format: binding; conditions: STAT3(G127-I722) 25 nM, probe 5-FAM-GpYLPQTV-NH2 2 nM, 45-minute incubation
T1 construct: STAT3(G127-I722)
Method in brief: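 Serially diluted compounds (1% DMSO) were mixed with 2 nM fluorescent phosphotyrosine peptide and 25 nM STAT3 construct G127-I722, pH 7.4, incubated 45 min at room temperature. IC50 values from fitted polarization curves are reported as categories A (≤100 nM), B, C, D (>10 μM).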

[2] = molecular target: T2, Recombinant STAT6 protein (STAT6(W123-T658)) (Homo sapiens, UniProt P42226); test: STAT6 Fluorescence Polarization (FP) Assay; format: binding; conditions: STAT6(W123-T658) 250 nM, probe 5-FAM-ApYKPFQDLI-NH2 2 nM, 45-minute incubation
T2 construct: STAT6(W123-T658)
T2 sequence (P42226 123-658): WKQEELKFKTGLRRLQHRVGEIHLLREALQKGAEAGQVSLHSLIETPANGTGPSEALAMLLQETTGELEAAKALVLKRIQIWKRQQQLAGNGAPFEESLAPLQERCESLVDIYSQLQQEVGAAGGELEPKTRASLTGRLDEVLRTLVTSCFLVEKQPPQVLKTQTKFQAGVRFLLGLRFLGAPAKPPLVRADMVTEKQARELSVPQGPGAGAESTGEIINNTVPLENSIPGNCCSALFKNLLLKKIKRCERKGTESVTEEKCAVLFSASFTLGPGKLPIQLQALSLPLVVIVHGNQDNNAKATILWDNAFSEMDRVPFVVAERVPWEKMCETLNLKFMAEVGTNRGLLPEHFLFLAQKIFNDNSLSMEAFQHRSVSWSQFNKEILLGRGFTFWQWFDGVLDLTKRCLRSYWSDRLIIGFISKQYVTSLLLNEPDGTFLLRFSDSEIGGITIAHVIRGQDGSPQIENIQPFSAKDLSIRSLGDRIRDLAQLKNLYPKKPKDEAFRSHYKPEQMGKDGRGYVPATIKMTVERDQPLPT
Method in brief: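 Competitive displacement of a fluorescent phosphotyrosine peptide (2 nM) from recombinant STAT6 W123-T658 (250 nM), 45 min at room temperature in 10 mM HEPES pH 7.4, 50 mM NaCl, 2 mM DTT. mP fitted against log compound for IC50, grouped A (≤300 nM) to D (>30 μM).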

T1 sequence (P40763 127-722, species assumed): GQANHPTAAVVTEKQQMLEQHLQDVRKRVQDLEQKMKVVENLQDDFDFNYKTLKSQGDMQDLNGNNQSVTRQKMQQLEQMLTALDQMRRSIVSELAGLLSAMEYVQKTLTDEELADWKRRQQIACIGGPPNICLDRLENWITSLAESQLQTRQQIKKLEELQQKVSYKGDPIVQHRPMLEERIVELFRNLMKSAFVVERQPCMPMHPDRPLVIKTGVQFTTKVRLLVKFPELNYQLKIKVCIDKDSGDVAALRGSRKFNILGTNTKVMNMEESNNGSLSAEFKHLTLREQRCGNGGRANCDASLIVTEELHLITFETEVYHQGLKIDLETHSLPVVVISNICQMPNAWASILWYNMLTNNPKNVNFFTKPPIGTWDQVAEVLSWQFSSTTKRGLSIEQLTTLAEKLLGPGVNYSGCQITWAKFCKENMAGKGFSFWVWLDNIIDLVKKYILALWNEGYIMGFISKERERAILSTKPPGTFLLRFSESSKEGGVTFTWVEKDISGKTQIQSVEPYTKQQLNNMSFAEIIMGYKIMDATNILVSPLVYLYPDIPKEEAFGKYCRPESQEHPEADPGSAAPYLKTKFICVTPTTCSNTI

| Structure (SMILES) | IC50 [1] [µM] | IC50 [2] [µM] |
| --- | --- | --- |
| O=C(N[C@H]1C[C@H]2C[C@H]2C[C@H]2CC[C@@H](C(=O)N[C@@H]3CCN(c4cccnc4)C3)N2C1=O)c1cc2cc(C(F)(F)P(=O)(O)O)ccc2s1 [Compound 47, (difluoro(2-(((3S,6S,7aR,8aS,9aR)-5-oxo-3-(((R)-1-(pyridin-3-yl)pyrrolidin-3-yl)carbamoyl)decahydro-1H-cyclopropa[d]pyrrolo[1,2-a]azocin-6-yl)carbamoyl)benzo[b]thiophen-5-yl)methyl)phosphonic acid] | < 0.1 | 0.3 to 3 |
| O=C(N[C@H]1C[C@@H]2C[C@@H]2C[C@H]2CC[C@@H](C(=O)N[C@@H]3CCN(C4COC4)C3)N2C1=O)c1cc2cc(C(F)(F)P(=O)(O)O)ccc2s1 [Compound 48, (difluoro(2-(((3S,6S,7aS,8aR,9aR)-3-(((R)-1-(oxetan-3-yl)pyrrolidin-3-yl)carbamoyl)-5-oxodecahydro-1H-cyclopropa[d]pyrrolo[1,2-a]azocin-6-yl)carbamoyl)benzo[b]thiophen-5-yl)methyl)phosphonic acid] | 0.1 to 1 | 3 to 30 |
| N#Cc1cccc(C2CN(C(=O)[C@@H]3CC[C@@H]4C[C@H]5C[C@H]5C[C@H](NC(=O)c5cc6cc(C(F)(F)P(=O)(O)O)ccc6s5)C(=O)N43)C2)c1 [Compound 49, ((2-(((3S,6S,7aS,8aR,9aR)-3-(3-(3-cyanophenyl)azetidine-1-carbonyl)-5-oxodecahydro-1H-cyclopropa[d]pyrrolo[1,2-a]azocin-6-yl)carbamoyl)benzo[b]thiophen-5-yl)difluoromethyl)phosphonic acid] | < 0.1 | 3 to 30 |
| O=C(N[C@H]1C[C@@H]2C[C@@H]2C[C@H]2CC[C@@H](C(=O)N[C@@H]3CCN(c4cccnn4)C3)N2C1=O)c1cc2cc(C(F)(F)P(=O)(O)O)ccc2s1 [Compound 51, (difluoro(2-(((3S,6S,7aS,8aR,9aR)-5-oxo-3-(((R)-1-(pyridazin-3-yl)pyrrolidin-3-yl)carbamoyl)decahydro-1H-cyclopropa[d]pyrrolo[1,2-a]azocin-6-yl)carbamoyl)benzo[b]thiophen-5-yl)methyl)phosphonic acid] | < 0.1 | 0.3 to 3 |
| O=C(N[C@H]1C[C@@H]2C[C@@H]2C[C@H]2CC[C@@H](C(=O)N[C@@H]3CCN(c4ccccc4)C3)N2C1=O)c1cc2cc(C(F)(F)P(=O)(O)O)ccc2s1 [Compound 52, (difluoro(2-(((3S,6S,7aS,8aR,9aR)-5-oxo-3-(((R)-1-phenylpyrrolidin-3-yl)carbamoyl)decahydro-1H-cyclopropa[d]pyrrolo[1,2-a]azocin-6-yl)carbamoyl)benzo[b]thiophen-5-yl)methyl)phosphonic acid] | 0.1 to 1 | 0.3 to 3 |
| O=C(N[C@H]1C[C@@H]2C[C@@H]2C[C@H]2CC[C@@H](C(=O)NC3CN([C@@H]4CCOC4)C3)N2C1=O)c1cc2cc(C(F)(F)P(=O)(O)O)ccc2s1 [Compound 53, (difluoro(2-(((3S,6S,7aS,8aR,9aR)-5-oxo-3-((1-((R)-tetrahydrofuran-3-yl)azetidin-3-yl)carbamoyl)decahydro-1H-cyclopropa[d]pyrrolo[1,2-a]azocin-6-yl)carbamoyl)benzo[b]thiophen-5-yl)methyl)phosphonic acid] | 0.1 to 1 | 3 to 30 |
| O=C(N[C@H]1C[C@@H]2C[C@@H]2C[C@H]2CC[C@@H](C(=O)NC3CN([C@H]4CCOC4)C3)N2C1=O)c1cc2cc(C(F)(F)P(=O)(O)O)ccc2s1 [Compound 57, (difluoro(2-(((3S,6S,7aS,8aR,9aR)-5-oxo-3-((1-((S)-tetrahydrofuran-3-yl)azetidin-3-yl)carbamoyl)decahydro-1H-cyclopropa[d]pyrrolo[1,2-a]azocin-6-yl)carbamoyl)benzo[b]thiophen-5-yl)methyl)phosphonic acid] | 0.1 to 1 | 3 to 30 |
| O=C(N[C@H]1C[C@H]2C[C@H]2C[C@H]2CC[C@@H](C(=O)N3CC(n4ccnc4)C3)N2C1=O)c1ccc2ccc(C(F)(F)P(=O)(O)O)cc2c1 [Compound 59, ((7-(((3S,6S,7aR,8aS,9aR)-3-(3-(1H-imidazol-1-yl)azetidine-1-carbonyl)-5-oxodecahydro-1H-cyclopropa[d]pyrrolo[1,2-a]azocin-6-yl)carbamoyl)naphthalen-2-yl)difluoromethyl)phosphonic acid] | < 0.1 | 3 to 30 |
| N#Cc1ccc(C2(F)CN(C(=O)[C@@H]3CC[C@@H]4C[C@H]5C[C@H]5C[C@H](NC(=O)c5cc6cc(C(F)(F)P(=O)(O)O)ccc6s5)C(=O)N43)C2)cc1 [Compound 62, ((2-(((3S,6S,7aS,8aR,9aR)-3-(3-(4-cyanophenyl)-3-fluoroazetidine-1-carbonyl)-5-oxodecahydro-1H-cyclopropa[d]pyrrolo[1,2-a]azocin-6-yl)carbamoyl)benzo[b]thiophen-5-yl)difluoromethyl)phosphonic acid] | < 0.1 | 0.3 to 3 |

Now from value to molecule:

| IC50 [1] [µM] | IC50 [2] [µM] | Structure (SMILES) |
| --- | --- | --- |
| < 0.1 | 3 to 30 | O=C(N[C@H]1C[C@@H]2C[C@@H]2C[C@H]2CC[C@@H](C(=O)N3CC(c4cnccn4)C3)N2C1=O)c1cc2cc(C(F)(F)P(=O)(O)O)ccc2s1 [Compound 50, (difluoro(2-(((3S,6S,7aS,8aR,9aR)-5-oxo-3-(3-(pyrazin-2-yl)azetidine-1-carbonyl)decahydro-1H-cyclopropa[d]pyrrolo[1,2-a]azocin-6-yl)carbamoyl)benzo[b]thiophen-5-yl)methyl)phosphonic acid] |
| < 0.1 | 0.3 to 3 | O=C(N[C@H]1C[C@H]2C[C@H]2C[C@H]2CC[C@@H](C(=O)N3CC(c4c[nH]cn4)C3)N2C1=O)c1cc2cc(C(F)(F)P(=O)(O)O)ccc2s1 [Compound 54, ((2-(((3S,6S,7aR,8aS,9aR)-3-(3-(1H-imidazol-4-yl)azetidine-1-carbonyl)-5-oxodecahydro-1H-cyclopropa[d]pyrrolo[1,2-a]azocin-6-yl)carbamoyl)benzo[b]thiophen-5-yl)difluoromethyl)phosphonic acid] |
| < 0.1 | 3 to 30 | Cc1ncccc1C1CN(C(=O)[C@@H]2CC[C@@H]3C[C@@H]4C[C@@H]4C[C@H](NC(=O)c4cc5cc(C(F)(F)P(=O)(O)O)ccc5s4)C(=O)N32)C1 [Compound 55, (difluoro(2-(((3S,6S,7aR,8aS,9aR)-3-(3-(2-methylpyridin-3-yl)azetidine-1-carbonyl)-5-oxodecahydro-1H-cyclopropa[d]pyrrolo[1,2-a]azocin-6-yl)carbamoyl)benzo[b]thiophen-5-yl)methyl)phosphonic acid] |
| < 0.1 | 0.3 to 3 | Cc1ccncc1C1CN(C(=O)[C@@H]2CC[C@@H]3C[C@@H]4C[C@@H]4C[C@H](NC(=O)c4cc5cc(C(F)(F)P(=O)(O)O)ccc5s4)C(=O)N32)C1 [Compound 56, (difluoro(2-(((3S,6S,7aR,8aS,9aR)-3-(3-(4-methylpyridin-3-yl)azetidine-1-carbonyl)-5-oxodecahydro-1H-cyclopropa[d]pyrrolo[1,2-a]azocin-6-yl)carbamoyl)benzo[b]thiophen-5-yl)methyl)phosphonic acid] |
| < 0.1 | 3 to 30 | Cc1cccnc1C1CN(C(=O)[C@@H]2CC[C@@H]3C[C@@H]4C[C@@H]4C[C@H](NC(=O)c4cc5cc(C(F)(F)P(=O)(O)O)ccc5s4)C(=O)N32)C1 [Compound 58, (difluoro(2-(((3S,6S,7aR,8aS,9aR)-3-(3-(3-methylpyridin-2-yl)azetidine-1-carbonyl)-5-oxodecahydro-1H-cyclopropa[d]pyrrolo[1,2-a]azocin-6-yl)carbamoyl)benzo[b]thiophen-5-yl)methyl)phosphonic acid] |
| < 0.1 | 0.3 to 3 | Cc1cccc(C2CN(C(=O)[C@@H]3CC[C@@H]4C[C@@H]5C[C@@H]5C[C@H](NC(=O)c5cc6cc(C(F)(F)P(=O)(O)O)ccc6s5)C(=O)N43)C2)n1 [Compound 60, (difluoro(2-(((3S,6S,7aR,8aS,9aR)-3-(3-(6-methylpyridin-2-yl)azetidine-1-carbonyl)-5-oxodecahydro-1H-cyclopropa[d]pyrrolo[1,2-a]azocin-6-yl)carbamoyl)benzo[b]thiophen-5-yl)methyl)phosphonic acid] |
| < 0.1 | 3 to 30 | O=C(N[C@H]1C[C@@H]2C[C@@H]2C[C@H]2CC[C@@H](C(=O)N3CC(c4cncnc4)C3)N2C1=O)c1cc2cc(C(F)(F)P(=O)(O)O)ccc2s1 [Compound 61, (difluoro(2-(((3S,6S,7aS,8aR,9aR)-5-oxo-3-(3-(pyrimidin-5-yl)azetidine-1-carbonyl)decahydro-1H-cyclopropa[d]pyrrolo[1,2-a]azocin-6-yl)carbamoyl)benzo[b]thiophen-5-yl)methyl)phosphonic acid] |
